Laboratory results published in patent publication EP0437336B1, “Biophosphoryl hydrazines and their use as pesticides” (priority 1990, dated 1991).
≈ marks a conversion by molar mass, not a printed value. Like-named read-outs stand apart in the source and are kept apart here.

Columns and labels:
[1] = test system: southern corn rootworm, Diabrotica undecimpunctata howardi; assay: Biological Method A: Corn Rootworm Screening Test (treated non-aggressive soil); conditions: soil concentration giving 90% mortality, 10 days at 27°C
[2] = test system: southern corn rootworm, Diabrotica undecimpunctata howardi; conditions: at-planting soil application
Southern Armyworm [3] = assay: Biological Method D: Foliar Insecticidal Activity Test, Southern Armyworm test; format: in vivo, Spodoptera eridania; design: key: I = inactive at concentration listed
[4] = test system: Japanese beetle (Popillia japonica ) eggs; assay: Biological Method E: Turf Grub Insecticidal Activity Test; format: in vivo; conditions: soil incorporation
Protocol: Biological Method E: Turf Grub Insecticidal Activity Test
These will give soil concentrations of […] (1.6, 0.8, 0.4, and 0.2 pounds per acre), respectively.
Ten milliliters of test solution were incorporated into 250 ml of moistened soil (clay loam, 90% : humus soil, 10%) and allowed to air in an uncapped pint jar for about 2 hours. After airing, a small amount of seed mixture containing equal parts of redtop (Agrostis alba ) and white clover (Trifolium repens ) was incorporated into the soil. Two 50 ml quantities of soil were placed into dep 88.72 cm³ (3 ounce) ointment tin cans.
Ten Japanese beetle (Popillia japonica ) eggs were placed into the soil in each can and the can capped with its tined lid. Treatments were held for 23 days at 30 degrees Centigrade.
Upon termination, the soil was sieved to isloate the grubs. The percent mortality was determined for each concentration.

Boll Weevil [5] = assay: Biological Method D: Foliar Insecticidal Activity Test, boll weevil test; format: in vivo, Anthonomous grandis; design: key: I = inactive at concentration listed
Two-Spotted Spider Mite = assay: Biological Method D: Foliar Insecticidal Activity Test, mite test; format: in vivo, Tetranychus urticae; design: key to LC50 TSM: I = inactive at concentration listed; conditions: Two-Spotted Spider Mite; for LC50 TSM: Method D foliar test; for LC50: Tetranychus urticae, foliar, compounds a-r, read-out: LC 50 TSM
Green Peach Aphid [6] = assay: Biological Method D: Foliar Insecticidal Activity Test, aphid test; format: in vivo, Myzus persicae; design: key: I = inactive at concentration listed
Mexican Bean Beetle = assay: Biological Method D: Foliar Insecticidal Activity Test, Mexican Bean Beetle test; format: in vivo, Epilachna varivestis; design: key to LC50 BB 96 hrs / LC50 BB 48 hrs.: I = inactive at concentration listed; conditions: Mexican Bean Beetle; for LC50: Epilachna varivestis
Southern Armyworm [7] = assay: Biological Method D: Foliar Insecticidal Activity Test, Southern Armyworm test; format: in vivo, Spodoptera eridania; design: key: I = inactive at concentration tested; conditions: compounds a-r
Protocol: (§1) Biological Method D: Foliar Insecticidal Activity Test
(§2) In evaluating the foliar insecticidal activity of the compounds of this invention against insects and mites, the following test procedures were employed.
(§3) Not all compounds were tested at each of the several concentrations stated above. Test concentrations of a compound were selected as those most likely to differentiate dose response of a particular compound toward a particular test insect.
(§4) Initial evaluations were made on one or more of the following pests:
For the Mexican Bean Beetle and Southern armyworm tests, individual lima bean (Phaseolus limeniss var. Woods' Prolific) leaves were placed on moistened pieces of filter paper in Petri dishes. The leaves were then sprayed with the test solution using a rotating turntable and allowed to dry. The dishes were then infested with 10 third instar larvae of either the Mexican Been Beetle or the Southern Armyworm. The dishes were then covered. Percent mortality was determined for each species and spray concentration at 48 and 96 hours after treatment.
(§5) The mortalities obtained in this manner were plotted on logarithmic probability paper.
(§6) The rotating turntable consists of a fixed, continuously operating spray nozzle under which targets are rotated at a fixed speed and distance. If the target is a Petri dish (such as for the bean beetle, armyworm, mite, or aphid tests), the distance from the nozzle is 38.1 cm (15 inches). If the target is a Mason jar (such as for the boll weevil test), the distance from the nozzle is 17.8 cm (7 inches). The nozzle is located 8 inches from the rotating shaft. The targets on individual platforms revolve around the shaft at 1 revolution per 20 seconds but only a brief portion of this time occurs in the spray path. Targets pass only once under the nozzle and then are removed to drying hoods.
(§7) The nozzle used is a 1/4 JCO Spraying Systems (Wheaton, Illinois) air atomizing nozzle equipped with a No. 2850 fluid cap and a No. 70 air cap. At the 68.95 x 10³ Pa gauge (10 psig) air pressure used and with liquid siphon feed, 1.89 ℓ/hr [0.5 GPH (gallons per hour)] are delivered in a round spray pattern with a 21 degree spray angle. Targets are misted with spray droplets to the point that the droplets coalesce to form a uniform thin film insufficient to drown test organisms.

Boll Weevil [8] = assay: Biological Method D: Foliar Insecticidal Activity Test, boll weevil test; format: in vivo, Anthonomous grandis; design: key: I = inactive at concentration tested; conditions: compounds a-r
Protocol: as §1, §2, §3, §4
For the boll weevil test, 10 adult weevils were placed in a 0.24 ℓ (0.5 pint) glass Mason jar containing a small cube of apple. The weevils were confined to the jar by fiberglass screen mesh secured by a screw-type rim cap. The jars were then sprayed with the test solution using a rotating turntable; directing the spray through the mesh into the jar. The percentage killed was determined after forty-eight and ninety six hours.
as §5, §6, §7

Green Peach Aphid [9] = assay: Biological Method D: Foliar Insecticidal Activity Test, aphid test; format: in vivo, Myzus persicae; design: key: I = inactive at concentration tested; conditions: compounds a-r
Protocol: as §1, §2, §3, §4
For the aphid test, infested broccoli (Brassica oleracea italica var. DiCicco) leaves containing about 50 aphids were placed in a Petri dish lid on a moistened piece of cotton. The leaves were then sprayed to thorough wetness with the test solution using a rotating turntable, held for twenty-four hours and then the percentage killed was determined.
as §5, §6, §7

Boll Weevil [10] = assay: Biological Method D: Foliar Insecticidal Activity Test, boll weevil test; format: in vivo, Anthonomous grandis; conditions: Boll Weevil, compounds a-r
Green Peach Aphid [11] = assay: Biological Method D: Foliar Insecticidal Activity Test, aphid test; format: in vivo, Myzus persicae; conditions: Myzus persicae, foliar; Green Peach Aphid; compounds a-r
Southern Armyworm [12] = assay: Biological Method D: Foliar Insecticidal Activity Test, Southern Armyworm test; format: in vivo, Spodoptera eridania; conditions: Spodoptera eridania, foliar, Southern Armyworm, compounds a-r
[13] = test system: southern corn rootworm, Diabrotica undecimpunctata howardi; conditions: Diabrotica undecimpunctata, in Zea mays, foliar, 336 h, read-out: foliar systemic nonagressive Method B crw % control at 0.56 kg/ha (0.5 lb/acre)
[14] = 23 days at 30 degrees Centigrade
[15] = Method D foliar test, 96 hrs, read-out: LC50 BB 96 hrs
[16] = foliar, 48 hrs, compounds a-r, read-out: LC 50 BB 48 hrs.
[17] = foliar, 96 hrs, compounds a-r, read-out: LC 50 BB 96 hrs.
[18] = 48 hrs, read-out: LC 50 AW 48 hrs.
[19] = 96 hrs, read-out: LC 50 AW 96 hrs.

SMILES	LC50 AW 48 hrs (Southern Armyworm [7])	LC50 AW 96 hrs (Southern Armyworm [7])	LC50 BW 48 hrs (Boll Weevil [8])	LC50 BW 96 hrs (Boll Weevil [8])	LC50 GPA (Green Peach Aphid [9])	LC50 (Mexican Bean Beetle; [16])	LC50 (Mexican Bean Beetle; [17])	LC50 (Two-Spotted Spider Mite)	also measured
CCOP(=S)(NNP(=S)(OCC)OC(C)C)OCC(C)(C)C (centres unmarked) [Compound 46, N-(O-ethyl O-isopropylthiophosphoryl) N′-(O-ethyl O-neopentylthiophosphoryl) hydrazine]	–	–	–	–	–	–	–	–	primary nonagressive Method A crw LC90 [1]: 0.08 ppm; secondary aggressive Method C crw LC50 ([2]; rated 17 days post-infestation): 0.34 kg/ha; secondary aggressive Method C crw LC50 ([2]; value in brackets): 0.30 lb/acre; LC50 AW 48 hrs (Southern Armyworm [3]): I; LC50 AW 96 hrs (Southern Armyworm [3]): I; LC95 [4, 14]: < 0.22 kg/ha; LC95 ([4]; 23 days, value in brackets): < 0.2 pounds per acre; LC50 BW 48 hrs (Boll Weevil [5]): I; LC50 BW 96 hrs (Boll Weevil [5]): I; LC50 TSM (Two-Spotted Spider Mite): I; LC50 GPA (Green Peach Aphid [6]): I; LC50 (Mexican Bean Beetle; [15]): 45 µg/mL (≈ 115 µM); LC50 BB 48 hrs. (Mexican Bean Beetle; Method D foliar test, 48 hrs): I
CCOP(=S)(OCC)N(C)NP1(=S)OCC(C)(C)CO1 [n]	I	I	I	I	I	150 µg/mL (≈ 414 µM)	150 µg/mL (≈ 414 µM)	–	–
CCCOP(=S)(NN(C)P(=S)(OCC)OCC)OCCC [d]	I	I	I	I	I	150 µg/mL (≈ 396 µM)	150 µg/mL (≈ 396 µM)	150 µg/mL (≈ 396 µM)	–
CCOP(=O)(NN(C)P(=S)(OC)OC)SC(C)CC (centres unmarked) [l, N-(O,O-dimethylthiophosphoryl) N'-(O-ethyl S-secbutyl chloro phosphoryl) N-methyl hydrazine]	I	I	I	–	I	–	–	660 µg/mL (≈ 1880 µM)	LC50 BW 96 hrs (Boll Weevil [10]): 740 ppm
CCOP(=S)(OCC)N(C)N(C)P(=S)(OCC)OC(C)C (centres unmarked) [b, N-(O,O-diethylthiophosphoryl) N′-(O-ethyl O-isopropylthiophosphoryl) N,N′-dimethyl hydrazine]	I	I	–	–	–	150 µg/mL (≈ 396 µM)	150 µg/mL (≈ 396 µM)	5.5 µg/mL (≈ 14.5 µM)	LC50 BW 48 hrs (Boll Weevil [10]): 740 ppm; LC50 BW 96 hrs (Boll Weevil [10]): 150 ppm; LC50 (Green Peach Aphid [11]): 36 µg/mL (≈ 95.1 µM)
CCCOP(=S)(NN(C)P(=S)(OCC)OCC)OCC (centres unmarked) [c, N-(O,O-diethylthiophosphoryl) N′-(O-ethyl O-propylthiophosphoryl) N-methyl hydrazine]	–	–	I	I	–	150 µg/mL (≈ 412 µM)	150 µg/mL (≈ 412 µM)	150 µg/mL (≈ 412 µM)	LC50 (Southern Armyworm [12]; [18]): 150 µg/mL (≈ 412 µM); LC50 (Southern Armyworm [12]; [19]): 150 µg/mL (≈ 412 µM); LC50 (Green Peach Aphid [11]): 290 µg/mL (≈ 796 µM)
COP(=S)(NN(C)P(=S)(OC)OC)OC [h]	I	I	I	I	I	–	–	–	–
CCOP(=O)(SC(C)CC)N(C)NP(=S)(OCC)OCC(C)(C)C (centres unmarked) [k]	I	I	I	I	–	–	52 µg/mL (≈ 124 µM)	–	LC50 (Green Peach Aphid [11]): 300 µg/mL (≈ 713 µM)
CCOP(=S)(NN(C(=O)OC)P(=S)(OCC)OCC)OCC [o]	I	I	I	–	I	52 µg/mL (≈ 132 µM)	45 µg/mL (≈ 114 µM)	150 µg/mL (≈ 380 µM)	LC50 BW 96 hrs (Boll Weevil [10]): 740 ppm
CCOP(=S)(OCC(C)(C)C)N(C)NP(=S)(OC)OC (centres unmarked) [i, N-(O,O-dimethylthiophosphoryl) N′-(O-ethyl O-neopentylthiophosphoryl) N′-methyl hydrazine]	I	I	I	I	I	–	–	150 µg/mL (≈ 412 µM)	–
CCOP(=S)(NN(C)P(=S)(OC)OC)OCC(C)(C)C (centres unmarked) [r]	I	I	–	–	I	–	–	–	–
CCOP(=S)(NN(C)P(=S)(OCC)OCC)OCC(C)(C)C (centres unmarked) [j]	I	I	I	I	I	–	–	–	–
CCOP(=O)(SC(C)CC)N(C)N(C)P(=S)(OC)OC (centres unmarked) [m]	I	I	–	–	I	600 µg/mL (≈ 1650 µM)	38 µg/mL (≈ 104 µM)	150 µg/mL (≈ 412 µM)	LC50 BW 48 hrs (Boll Weevil [10]): 740 ppm; LC50 BW 96 hrs (Boll Weevil [10]): 740 ppm
CCOP(=S)(NN(C)P(=S)(OCC)OCC)OCC [a, N,N′-bis-(O,O-diethylthiophosphoryl) N-methyl hydrazine]	–	–	I	I	–	500 µg/mL (≈ 1430 µM)	420 µg/mL (≈ 1200 µM)	150 µg/mL (≈ 428 µM)	LC50 (Southern Armyworm [12]; [18]): 150 µg/mL (≈ 428 µM); LC50 (Southern Armyworm [12]; [19]): 150 µg/mL (≈ 428 µM); LC50 (Green Peach Aphid [11]): 150 µg/mL (≈ 428 µM)
CCCOP(=S)(NNP(=S)(OCC)OCC(C)(C)C)OCCC (centres unmarked) [Compound 41, N-(O,O-dipropylthiophosphoryl) N′-(O-ethyl O-neopentylthiophosphoryl) hydrazine]	–	–	–	–	–	–	–	–	primary nonagressive Method A crw LC90 [1]: 0.06 ppm; secondary aggressive Method C crw LC50 ([2]; rated 17 days post-infestation): 0.3 kg/ha; secondary aggressive Method C crw LC50 ([2]; value in brackets): 0.27 lb/acre; LC50 AW 48 hrs (Southern Armyworm [3]): I; LC50 AW 96 hrs (Southern Armyworm [3]): I; LC95 [4, 14]: < 0.22 kg/ha; LC95 ([4]; 23 days, value in brackets): < 0.2 pounds per acre; LC50 BW 48 hrs (Boll Weevil [5]): I; LC50 BW 96 hrs (Boll Weevil [5]): I; LC50 TSM (Two-Spotted Spider Mite): I; LC50 GPA (Green Peach Aphid [6]): I; LC50 (Mexican Bean Beetle; Method D foliar test, 48 hrs, read-out: LC50 BB 48 hrs.): 62 µg/mL (≈ 153 µM); LC50 (Mexican Bean Beetle; [15]): 78 µg/mL (≈ 192 µM); pest or weed control at 560 g/ha [13]: 31%
CCOP(=S)(NN(C)P(=S)(OCC)OC(C)C)OCC (centres unmarked) [q]	I	I	–	I	I	300 µg/mL (≈ 823 µM)	72 µg/mL (≈ 198 µM)	–	–
